Measured values published in PubChem BioAssay (NCI).
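Grown in 96-well plates, cells were treated for 48 hours with each compound at five concentrations. Insufficient inhibition: endpoint recorded as highest concentration tested. Here, GI50 denotes the concentration required for 50% inhibition of growth. TGI denotes the concentration required for complete inhibition of growth.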

What was measured:
Experiment in all cases: NCI-60 cell line screen, 48 h
[1] = test system: KM12 colon
[2] = test system: DU-145 prostate
[3] = test system: RXF 393 renal
[4] = test system: COLO 205 colon
[5] = test system: NCI-H522 lung
[6] = test system: A498 renal
[7] = test system: SF-295 CNS
[8] = test system: SW-620 colon
[9] = test system: NCI-H23 lung
[10] = test system: PC-3 prostate
[11] = test system: HCC-2998 colon
[12] = test system: OVCAR-3 ovarian
[13] = test system: HCT-116 colon
[14] = test system: HOP-62 NSCLC
[15] = test system: SF-539 CNS
[16] = test system: SN12C renal
[17] = test system: BT-549 breast
[18] = test system: NCI/ADR-RES ovarian
[19] = test system: A549 NSCLC
[20] = test system: 786-0 renal
[21] = test system: SK-OV-3 ovarian
[22] = test system: OVCAR-4 ovarian
[23] = test system: SNB-75 CNS
[24] = test system: U251 CNS
[25] = test system: OVCAR-8 ovarian
[26] = test system: CAKI-1 renal
[27] = test system: HL-60(TB) leukemia
[28] = test system: UO-31 renal
[29] = test system: SK-MEL-2 melanoma
[30] = test system: NCI-H226 lung
[31] = test system: SNB-19 CNS
[32] = test system: HS 578T breast
[33] = test system: IGROV1 ovarian
[34] = test system: SK-MEL-5 melanoma
[35] = test system: MCF7 breast
[36] = test system: SK-MEL-28 melanoma
[37] = test system: SF-268 CNS
[38] = test system: UACC-257 melanoma
[39] = test system: LOX IMVI melanoma
[40] = test system: M14 melanoma
[41] = test system: TK-10 renal
[42] = test system: HOP-92 NSCLC
[43] = test system: HCT-15 colon
[44] = test system: T-47D breast
[45] = test system: MALME-3M melanoma
[46] = test system: MDA-MB-435
[47] = test system: ACHN renal
[48] = test system: EKVX NSCLC
[49] = test system: OVCAR-5 ovarian
[50] = test system: HT29 colon

COc1ccc(Nc2nccc(Nc3ccc4[nH]ncc4c3)n2)cc1 showed a GI50 [1] of 3.45 µM, a TGI [1] of 24.2 µM and a GI50 [2] of 3.31 µM. It also gave a TGI [2] of 12.9 µM, a GI50 [3] of 1.98 µM and a TGI [3] of 6.45 µM. For the same compound, the GI50 [4] was 2.59 µM, the TGI [4] was 7.21 µM and the GI50 [5] was 1.86 µM. It also gave a TGI [5] of 4.77 µM, a GI50 [6] of 4.62 µM and a TGI [6] of 17.2 µM. The GI50 [7] was 3.78 µM, the TGI [7] was 13.8 µM and the GI50 [8] was 3.31 µM. The TGI [8] was > 100 µM, the GI50 [9] was 2.35 µM and the TGI [9] was 6.27 µM. For the same compound, the GI50 [10] was 2.21 µM, the TGI [10] was 7.2 µM and the GI50 [11] was 2.88 µM. It also gave a TGI [11] of 8.05 µM, a GI50 [12] of 3.15 µM and a TGI [12] of 10.6 µM. The GI50 [13] was 2.06 µM, the TGI [13] was 4.91 µM and the GI50 [14] was 2.27 µM. The TGI [14] was 5.75 µM, the GI50 [15] was 4.38 µM and the TGI [15] was 16.8 µM. For the same compound, the GI50 [16] was 3.92 µM, the TGI [16] was > 100 µM and the GI50 [17] was 3.22 µM. The TGI [17] was 12.1 µM, the GI50 [18] was 2.18 µM and the TGI [18] was 5.75 µM. For the same compound, the GI50 [19] was 3.46 µM, the TGI [19] was 14.3 µM and the GI50 [20] was 1.74 µM. For the same compound, the TGI [20] was 4.75 µM, the GI50 [21] was 7.04 µM and the TGI [21] was 21.7 µM. It also gave a GI50 [22] of 2.99 µM, a TGI [22] of 11.8 µM and a GI50 [23] of 4.58 µM. The TGI [23] was 20.3 µM, the GI50 [24] was 3.61 µM and the TGI [24] was 13.6 µM. It also gave a GI50 [25] of 2.24 µM, a TGI [25] of 5.39 µM and a GI50 [26] of 2.22 µM. The TGI [26] was 14.9 µM, the GI50 [27] was 2.05 µM and the TGI [27] was 4.67 µM. For the same compound, the GI50 [28] was 2.12 µM, the TGI [28] was 11.4 µM and the GI50 [29] was 2.4 µM. For the same compound, the TGI [29] was 6.39 µM, the GI50 [30] was 2.3 µM and the TGI [30] was 5.77 µM. The GI50 [31] was 4.3 µM, the TGI [31] was 87 µM and the GI50 [32] was 5.02 µM. For the same compound, the TGI [32] was > 100 µM, the GI50 [33] was 3.36 µM and the TGI [33] was 25.1 µM. It also gave a GI50 [34] of 2.01 µM, a TGI [34] of 4.75 µM and a GI50 [35] of 2.05 µM. It also gave a TGI [35] of 5.36 µM, a GI50 [36] of 3.64 µM and a TGI [36] of 16.5 µM. The GI50 [37] was 4.2 µM, the TGI [37] was 28.6 µM and the GI50 [38] was 5.41 µM. For the same compound, the TGI [38] was 16.9 µM, the GI50 [39] was 1.92 µM and the TGI [39] was 3.87 µM. The GI50 [40] was 2.39 µM, the TGI [40] was 6.15 µM and the GI50 [41] was 2.45 µM. It also gave a TGI [41] of 9.55 µM, a GI50 [42] of 3.13 µM and a TGI [42] of 12.9 µM. For the same compound, the GI50 [43] was 1.9 µM, the TGI [43] was 4.28 µM and the GI50 [44] was 1.77 µM. For the same compound, the TGI [44] was 5.42 µM, the GI50 [45] was 3.27 µM and the TGI [45] was 15.9 µM. For the same compound, the GI50 [46] was 2.1 µM, the TGI [46] was 5.7 µM and the GI50 [47] was 2.89 µM. For the same compound, the TGI [47] was 11.7 µM, the GI50 [48] was 5 µM and the TGI [48] was 17.9 µM. The GI50 [49] was 3.33 µM, the TGI [49] was > 100 µM and the GI50 [50] was 2.36 µM. The TGI [50] was 8.33 µM.
